Test results as given in patent publication US20130274185A1, “Pharmaceutical for Pseudo-Exercise Therapy” (THE UNIVERSITY OF TOKYO, priority 2010, published 2013).

Key:
C2C12 myocytes [1] = test: Mitochondrial content assay in C2C12 myocytes; assay type: cell-based, mouse; settings: C2C12; preincubation AraA 0.5 mM 1 hr or STO-609 1 μg/ml 6 hr, then 10 μg/ml adiponectin 48 hr
Description: (§1) The mouse C2C12 myoblasts were grown in 90% Dulbecco's modified high glucose Eagle's medium containing 10% (v/v) fetal bovine serum. When the cells reached 80% confluent, the myoblasts were induced to differentiate into myocytes by replacing the medium with a low serum differentiation medium (98% Dulbecco's modified high glucose Eagle's medium, 2.5% (v/v) horse serum). The medium was changed daily. The C2C12 cells were transfected by using Pofectamine 2000 (Invitrogen) and following the manufacturer's instructions.
Mitochondrial content assays were carried out as described in the following document (Cell Metab. 4, 75-87 (2006)), with slight modifications. Quantification of the mitochondrial content was conducted by using mtDNA and MitoTracker Green probe (Molecular Probes) according to the method as described in the following document (Obes. Res. 13, 574-581 (2005)). MitoTracker Green probe preferentially accumulates in mitochondria regardless of the mitochondrial membrane potential and provides an accurate assessment of mitochondrial mass. Cells were washed with PBS and after addition of 100 nM MitoTracker Green FM (Molecular Probes), incubated at 37° C. for 30 min. Cells were harvested by using trypsin/EDTA and resuspended in PBS. Fluorescence intensity was detected with excitation and emission wavelengths of 490 and 516 nm, respectively, and the values thus measured were corrected for total protein (mg/ml).

PGC-1α (Ppargc1a) = PGC-1α (Ppargc1a) expression in C2C12 myocytes; assay type: cell-based, mouse; settings: C2C12; preincubation AraA 0.5 mM 1 hr, STO-609 1 μg/ml 6 hr or EGTA 5 mM 20 min, then adiponectin 10 μg/ml 1.5 hr
Description: Real-time PCR was carried out according to the method described in the following documents (Nature Med. 13, 332-339 2007); Nature 423, 762-769 (2003); J. Biol. Chem. 281, 8748-8755 (2006)). Total RNA was prepared from cells or tissues by using Trizol (Invitrogen) according to the manufacturer's instructions. Quantification of mRNA was conducted using a real-time PCR method (Nature 423, 762-769 (2003)) with slight modifications. The procedures used for immunoblotting are described in the following documents (Nature Med. 7, 941-946 (2001); J. Biol. Chem. 281, 26602-26614 (2006); J. Biol. Chem. 281, 8748-8755 (2006)). The livers or muscles were freeze-clamped in liquid nitrogen in situ (Nature Med. 7, 941-946 (2001); J. Biol. Chem. 281, 26602-26614 (2006); J. Biol. Chem. 281, 8748-8755 (2006)).
as §1

AMPK = AMPK phosphorylation in C2C12 myocytes; assay type: cell-based, mouse; settings: C2C12; for effect on adiponectin-induced increased AMPK phosphorylation: preincubation 5 mM EGTA 20 min, 50 μM BAPTA-AM 30 min or 10 μM U73122 30 min, then adiponectin 30 μg/ml 5 min
Description: as §1

muscle-R1KO mice [2] = test: Increased calcium influx experiment (Bay-K 8644 hydrogel) in muscle-R1KO mice; assay type: in vivo; settings: 0.25 μM Bay-K 8644
C2C12 myocytes [3] = test: Calcium imaging in C2C12 myocytes (fura-2); assay type: cell-based, mouse
Description: C212 myocytes cultured on glass base dishes (IWAKI) were treated with 2.5 μM fura-2/AM for 30 min. Fluorescence was measured with an Aquacosmos Calcium Imaging system (Hamamatsu Photonics). Ligands were delivered through the superfusing Ringer's solution (140 mM NaCl, 5.6 mM KCl, 5 mM HEPES, 2.0 mM sodium pyruvate, 1.25 mM KH2PO4, 2.0 mM CaCl2, 2.0 mM MgCl2, 9.4 mM D-glucose (pH 7.4)). For the calcium chelating experiment, EGTA solution (140 mM NaCl, 5.6 mM KCl, 5 mM HEPES, 2.0 mM sodium pyruvate, 1.25 mM KH2PO4, 2.0 mM MgCl2, 5.0 mM EGTA-2Na, 9.4 mM D-glucose (pH 7.4) was used for the bath solution. Fura-2 fluorescence ratios were calibrated to calcium ion signals.

AdipoR1 = biological target: T1, AdipoR1 (Mus musculus, UniProt Q91VH1); test: Electrophysiological recording in Xenopus oocytes expressing AdipoR1; assay type: cell-based; settings: oocytes expressing AdipoR1, 5 mM EGTA
T1 construct: expressed in transfected cells; host or cells: Xenopus oocytes (stage V to VII), cRNA synthesized from linearized modified pSPUTK
T1 sequence (Q91VH1 1-375): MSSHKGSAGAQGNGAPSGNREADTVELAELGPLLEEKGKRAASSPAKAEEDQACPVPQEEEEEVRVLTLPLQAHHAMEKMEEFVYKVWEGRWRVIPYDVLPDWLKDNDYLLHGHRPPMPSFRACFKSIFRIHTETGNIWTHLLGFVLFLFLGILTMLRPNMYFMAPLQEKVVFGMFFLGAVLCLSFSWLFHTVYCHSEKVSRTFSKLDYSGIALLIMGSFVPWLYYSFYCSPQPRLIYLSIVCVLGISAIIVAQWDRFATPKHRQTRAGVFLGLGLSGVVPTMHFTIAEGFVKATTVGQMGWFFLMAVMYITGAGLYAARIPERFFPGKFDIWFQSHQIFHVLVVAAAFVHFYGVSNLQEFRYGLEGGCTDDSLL
Description: Stage V to VII oocytes were treated with 2 mg/ml of collagenase S-1 (Nitta gelatin) in calcium ion-free saline solution (82.5 mM NaCl, 2 mM KCl, 1 mM MgCl2, and 5 mM HEPES, pH 7.5) for 1 to 2 hr at room temperature. The resulting oocytes were then microinjected with 50 ng of cRNA for mAdipoR1. The cRNA was synthesized from linearized modified pSPUTK. The injected oocytes were incubated for 3 days at 18° C. in a bath solution (88 mM NaCl, 1 mM KCl, 0.3 mM Ca(NO3)2, 0.4 mM CaCl2, 0.8 mM MgSO4, 2.4 mM […], 15 mM HEPES, pH 7.6) supplemented with 10 μg/ml of penicillin and streptomycin.
Whole cell currents were recorded with a two-electrode voltage clamp technique. Intracellular glass electrodes were filled with 3M KCl. Signals were amplified with an OC-725C amplifier (Warner Instruments), low-pass filtered at 50 Hz, and digitized at 1 kHz. A control bath solution contained 115 mM NaCl, 2.5 mM KCl, 1.8 mM CaCl2, and 10 mM HEPES. It was titrated to pH 7.2 with NaOH. A calcium ion free solution containing 1.8 mM BaCl2 instead of CaCl2 was used. The inward current was monitored at a holding potential of −80 mV. Calcium ion activated Cl^− current was monitored by applying 500-mscc depolarizing pulses of +100 mV and +50 mV from the holding potential of −80 mV. Adiponectin was supplied to the superfusing bath solution via a silicon tube connected to computer-driven solenoid valves. Data acquisition and analysis were carried out using Digidata 1322A and pCLAMP software.

CaMKI = CaMKI phosphorylation in C2C12 myocytes; assay type: cell-based, mouse; settings: EGTA 5 mM
Description: as §1

muscle-R1KO mice [4] = test: Treatment of muscle-R1KO mice with AICAR, resveratrol or MnTBAP; assay type: in vivo; settings: AICAR 500 mg per kg body weight, 2 hours
Description: Mitochondrial content assays were carried out as described in the following document (Cell Metab. 4, 75-87 (2006)), with slight modifications. Quantification of the mitochondrial content was conducted by using mtDNA and MitoTracker Green probe (Molecular Probes) according to the method as described in the following document (Obes. Res. 13, 574-581 (2005)). MitoTracker Green probe preferentially accumulates in mitochondria regardless of the mitochondrial membrane potential and provides an accurate assessment of mitochondrial mass. Cells were washed with PBS and after addition of 100 nM MitoTracker Green FM (Molecular Probes), incubated at 37° C. for 30 min. […] Fluorescence intensity was detected with excitation and emission wavelengths of 490 and 516 nm, respectively, and the values thus measured were corrected for total protein (mg/ml).
Oral glucose tolerance test (OGTT) and insulin tolerance test (ITT) were conducted by the method described in the following documents (Nature Med. 8, 1288-1295 (2002); Nature Med. 7, 941-946 (2001)), with some modifications. The areas of the glucose and insulin curves were calculated, respectively, by multiplying the cumulative mean height of the glucose values (1 mg/ml=1 cm) and insulin values (1 ng/ml=1 cm) by time (60 min=1 cm) (Nature Med. 13, 332-339 (2007); Nature Med. 7, 941-946 (2001)). […]

SMILES: Nc1ncnc2c1ncn2[C@@H]1O[C@H](CO)[C@@H](O)[C@@H]1O [AraA, reference compound]
- effect on the adiponectin-induced increase in mitochondrial biogenesis (C2C12 myocytes [1]): almost completely abolished
- effect on PGC-1α expression induced by adiponectin (PGC-1α (Ppargc1a)): only tended to decrease

SMILES: COc1ccc2c(c1)CC[C@@H]1[C@@H]2CC[C@]2(C)[C@@H](NCCCCCCN3C(=O)C=CC3=O)CC[C@@H]12 [U73122]
- effect on adiponectin-induced increased AMPK phosphorylation (AMPK): had little effect

SMILES: COC(=O)C1=C(C)NC(C)=C([N+](=O)[O-])C1c1ccccc1C(F)(F)F (centres unmarked) [Bay-K 8644]
- CaMKKβ activity (phosphorylation of CaMKI) in skeletal muscle (muscle-R1KO mice [2]): increase in CaMKKβ activity

SMILES: O=C(O)CN(CCOCCOCCN(CC(=O)O)CC(=O)O)CC(=O)O [EGTA, reference compound]
- effect on adiponectin-induced calcium ion response (C2C12 myocytes [3]; 5 mM EGTA): almost completely abolished
- effect on ATP-induced intracellular calcium ion release (C2C12 myocytes [3]; EGTA): had no effect
- effect on adiponectin-induced inward current responses (AdipoR1): almost completely abolishes
- effect on calcium-ion activated Cl- current responses to adiponectin (AdipoR1): almost completely abolished
- effect on phosphorylation of AMPK induced by AICAR (AMPK; 5 mM EGTA, AICAR 1 mM 1 hr): had no effect
- effect on ionomycin-dependent phosphorylation of AMPK (AMPK; 5 mM EGTA, ionomycin 1 μM 5 min): almost completely abolished
- effect on adiponectin-induced increased AMPK phosphorylation (AMPK): partially suppressed
- effect on PGC-1α expression induced by adiponectin (PGC-1α (Ppargc1a)): effectively and almost completely abolished
- effect on increased CaMKI phosphorylation stimulated with adiponectin (CaMKI): almost completely abolished

SMILES: CC(=O)OCOC(=O)CN(CC(=O)OCOC(C)=O)c1ccccc1OCCOc1ccccc1N(CC(=O)OCOC(C)=O)CC(=O)OCOC(C)=O [BAPTA-AM, Bis-(o-aminophenoxy)ethane-N,N,N9,N9-tetra-acetic acid, tetraacetoxymethyl ester]
- effect on adiponectin-induced increased AMPK phosphorylation (AMPK): partially suppressed

SMILES: NC(=O)c1ncn([C@@H]2O[C@H](CO)[C@@H](O)[C@H]2O)c1N [AICAR, 5-aminoimidazole-4-carboxamide-1-β-D-libocide]
- phosphorylation of AMPK in muscle (muscle-R1KO mice [4]): significantly increased

SMILES: O=C(O)c1ccc2c3c1cccc3c(=O)n1c3ccccc3nc21 [STO-609, reference compound]
- effect on the adiponectin-induced increase in mitochondrial biogenesis (C2C12 myocytes [1]): almost completely abolished
- effect on PGC-1α expression induced by adiponectin (PGC-1α (Ppargc1a)): effectively and almost completely abolished
